Like-named read-outs stand apart in the source and are kept apart here.
Tested on: several cell lines (Panel/Cell Line)
Assay: GI50, TGI and LC50 of compound II-21 for several cell lines (Table 12)

C(=N/Nc1ncnc2sc3c(c12)CCCC3)/c1ccccn1 [II-21]
GI50 (48 h, Leukemia, SR, 48-h exposure): 0.368 µM | GI50 (48 h, Melanoma, M14, 48-h exposure): 0.246 µM | GI50 (48 h, Prostate Cancer, PC-3, 48-h exposure): 0.431 µM | CC50 (48 h, read-out: LC50 (M), Leukemia, SR, 48-h exposure): > 0.0001 M | CC50 (48 h, read-out: LC50 (M), Melanoma, M14, 48-h exposure): 3.34e-05 M | CC50 (48 h, read-out: LC50 (M), Prostate Cancer, PC-3, 48-h exposure): > 0.0001 M | TGI (Breast Cancer, BT-549, 48-h exposure): 28.7 µM | TGI (Breast Cancer, HS 578T, 48-h exposure): 23.9 µM | TGI (Breast Cancer, MCF7, 48-h exposure): 15.3 µM | TGI (Breast Cancer, MDA-MB-231/ATCC, 48-h exposure): 29.7 µM | TGI (Breast Cancer, MDA-MB-468, 48-h exposure): 0.505 µM | TGI (Breast Cancer, T-47D, 48-h exposure): 28 µM | TGI (CNS Cancer, SF-268, 48-h exposure): 15.1 µM | TGI (CNS Cancer, SF-295, 48-h exposure): 12.1 µM | TGI (CNS Cancer, SF-539, 48-h exposure): 3.84 µM | TGI (CNS Cancer, SNB-19, 48-h exposure): 34.1 µM | TGI (CNS Cancer, SNB-75, 48-h exposure): 14.7 µM | TGI (CNS Cancer, U251, 48-h exposure): 12.1 µM | TGI (Colon Cancer, COLO 205, 48-h exposure): 14.7 µM | TGI (Colon Cancer, HCC-2998, 48-h exposure): 22.9 µM | TGI (Colon Cancer, HCT-15, 48-h exposure): 27 µM | TGI (Colon Cancer, HCT-116, 48-h exposure): 14.2 µM | TGI (Colon Cancer, HT29, 48-h exposure): 15.1 µM | TGI (Colon Cancer, KM12, 48-h exposure): 12.7 µM | TGI (Colon Cancer, SW-620, 48-h exposure): 17.9 µM | GI50 (Homo sapiens, 786-0, 48 h, Renal Cancer, 786-0, 48-h exposure): 0.333 µM | CC50 (Homo sapiens, 786-0, 48 h, read-out: LC50 (M), Renal Cancer, 786-0, 48-h exposure): 4.44e-05 M | GI50 (Homo sapiens, A498, 48 h, Renal Cancer, A498, 48-h exposure): 0.428 µM | CC50 (Homo sapiens, A498, 48 h, read-out: LC50 (M), Renal Cancer, A498, 48-h exposure): 3.72e-05 M | GI50 (Homo sapiens, A549, 48 h, Non-Small Cell Lung Cancer, A549/ATCC, 48-h exposure): 0.389 µM | CC50 (Homo sapiens, A549, 48 h, read-out: LC50 (M), Non-Small Cell Lung Cancer, A549/ATCC, 48-h exposure): 7.13e-05 M | GI50 (Homo sapiens, ACHN, 48 h, Renal Cancer, 48-h exposure): 0.313 µM | CC50 (Homo sapiens, ACHN, 48 h, read-out: LC50 (M), Renal Cancer, ACHN, 48-h exposure): > 0.0001 M | GI50 (Homo sapiens, BT-549, 48 h, Breast Cancer, BT-549, 48-h exposure): 0.394 µM | CC50 (Homo sapiens, BT-549, 48 h, read-out: LC50 (M), Breast Cancer, BT-549, 48-h exposure): > 0.0001 M | GI50 (Homo sapiens, CAKI-1, 48 h, Renal Cancer, CAKI-1, 48-h exposure): 0.313 µM | CC50 (Homo sapiens, CAKI-1, 48 h, read-out: LC50 (M), Renal Cancer, CAKI-1, 48-h exposure): > 0.0001 M | GI50 (Homo sapiens, CCRF-CEM, 48 h, Leukemia, 48-h exposure): 0.242 µM | CC50 (Homo sapiens, CCRF-CEM, 48 h, read-out: LC50 (M), Leukemia, CCRF-CEM, 48-h exposure): > 0.0001 M | GI50 (Homo sapiens, COLO 205, 48 h, Colon Cancer, COLO 205, 48-h exposure): 0.315 µM | CC50 (Homo sapiens, COLO 205, 48 h, read-out: LC50 (M), Colon Cancer, COLO 205, 48-h exposure): 5.45e-05 M | GI50 (Homo sapiens, DU-145, 48 h, Prostate Cancer, DU-145, 48-h exposure): 0.41 µM | CC50 (Homo sapiens, DU-145, 48 h, read-out: LC50 (M), Prostate Cancer, DU-145, 48-h exposure): 5.16e-05 M | GI50 (Homo sapiens, EKVX, 48 h, Non-Small Cell Lung Cancer, 48-h exposure): 0.317 µM | CC50 (Homo sapiens, EKVX, 48 h, read-out: LC50 (M), Non-Small Cell Lung Cancer, EKVX, 48-h exposure): > 0.0001 M | GI50 (Homo sapiens, HCC 2998, 48 h, Colon Cancer, HCC-2998, 48-h exposure): 10 µM | CC50 (Homo sapiens, HCC 2998, 48 h, read-out: LC50 (M), Colon Cancer, HCC-2998, 48-h exposure): 5.26e-05 M | GI50 (Homo sapiens, HCT-15, 48 h, Colon Cancer, HCT-15, 48-h exposure): 0.45 µM | CC50 (Homo sapiens, HCT-15, 48 h, read-out: LC50 (M), Colon Cancer, HCT-15, 48-h exposure): > 0.0001 M | GI50 (Homo sapiens, HCT-116, 48 h, Colon Cancer, HCT-116, 48-h exposure): 0.166 µM | CC50 (Homo sapiens, HCT-116, 48 h, read-out: LC50 (M), Colon Cancer, HCT-116, 48-h exposure): 6.74e-05 M | GI50 (Homo sapiens, HL-60, 48 h, Leukemia, HL-60(TB), 48-h exposure): 0.12 µM | CC50 (Homo sapiens, HL-60, 48 h, read-out: LC50 (M), Leukemia, HL-60(TB), 48-h exposure): > 0.0001 M | GI50 (Homo sapiens, HOP-62, 48 h, Non-Small Cell Lung Cancer, HOP-62, 48-h exposure): 0.395 µM | CC50 (Homo sapiens, HOP-62, 48 h, read-out: LC50 (M), Non-Small Cell Lung Cancer, HOP-62, 48-h exposure): > 0.0001 M | GI50 (Homo sapiens, HOP-92, 48 h, Non-Small Cell Lung Cancer, HOP-92, 48-h exposure): 0.417 µM | CC50 (Homo sapiens, HOP-92, 48 h, read-out: LC50 (M), Non-Small Cell Lung Cancer, HOP-92, 48-h exposure): > 0.0001 M | GI50 (Homo sapiens, HT-29, 48 h, Colon Cancer, HT29, 48-h exposure): 0.18 µM | CC50 (Homo sapiens, HT-29, 48 h, read-out: LC50 (M), Colon Cancer, HT29, 48-h exposure): 4.49e-05 M | GI50 (Homo sapiens, Hs-578T, 48 h, Breast Cancer, HS 578T, 48-h exposure): 0.748 µM | CC50 (Homo sapiens, Hs-578T, 48 h, read-out: LC50 (M), Breast Cancer, HS 578T, 48-h exposure): > 0.0001 M | GI50 (Homo sapiens, IGROV-1, 48 h, Ovarian Cancer, IGROV1, 48-h exposure): 0.45 µM | CC50 (Homo sapiens, IGROV-1, 48 h, read-out: LC50 (M), Ovarian Cancer, IGROV1, 48-h exposure): > 0.0001 M | GI50 (Homo sapiens, K562, 48 h, Leukemia, K-562, 48-h exposure): 0.284 µM | CC50 (Homo sapiens, K562, 48 h, read-out: LC50 (M), Leukemia, K-562, 48-h exposure): > 0.0001 M | GI50 (Homo sapiens, KM12, 48 h, Colon Cancer, KM12, 48-h exposure): 0.515 µM | CC50 (Homo sapiens, KM12, 48 h, read-out: LC50 (M), Colon Cancer, KM12, 48-h exposure): 3.81e-05 M | GI50 (Homo sapiens, LOX IMVI, 48 h, Melanoma, 48-h exposure): 0.256 µM | CC50 (Homo sapiens, LOX IMVI, 48 h, read-out: LC50 (M), Melanoma, LOX IMVI, 48-h exposure): 3.48e-05 M | GI50 (Homo sapiens, MCF7, 48 h, Breast Cancer, MCF7, 48-h exposure): 0.336 µM | CC50 (Homo sapiens, MCF7, 48 h, read-out: LC50 (M), Breast Cancer, MCF7, 48-h exposure): 8e-05 M | GI50 (Homo sapiens, MDA-MB-231, 48 h, Breast Cancer, MDA-MB-231/ATCC, 48-h exposure): 0.603 µM | CC50 (Homo sapiens, MDA-MB-231, 48 h, read-out: LC50 (M), Breast Cancer, MDA-MB-231/ATCC, 48-h exposure): > 0.0001 M | GI50 (Homo sapiens, MDA-MB-435, 48 h, Melanoma, MDA-MB-435, 48-h exposure): 0.477 µM | CC50 (Homo sapiens, MDA-MB-435, 48 h, read-out: LC50 (M), Melanoma, MDA-MB-435, 48-h exposure): > 0.0001 M | GI50 (Homo sapiens, MDA-MB-468, 48 h, Breast Cancer, MDA-MB-468, 48-h exposure): 0.2 µM | CC50 (Homo sapiens, MDA-MB-468, 48 h, read-out: LC50 (M), Breast Cancer, MDA-MB-468, 48-h exposure): 4.1e-05 M | GI50 (Homo sapiens, MOLT-4, 48 h, Leukemia, MOLT-4, 48-h exposure): 0.261 µM | CC50 (Homo sapiens, MOLT-4, 48 h, read-out: LC50 (M), Leukemia, MOLT-4, 48-h exposure): > 0.0001 M | GI50 (Homo sapiens, Malme-3M, 48 h, Melanoma, 48-h exposure): 0.275 µM | CC50 (Homo sapiens, Malme-3M, 48 h, read-out: LC50 (M), Melanoma, MALME-3M, 48-h exposure): 5.14e-05 M | GI50 (Homo sapiens, NCI-H23, 48 h, Non-Small Cell Lung Cancer, NCI-H23, 48-h exposure): 0.705 µM | CC50 (Homo sapiens, NCI-H23, 48 h, read-out: LC50 (M), Non-Small Cell Lung Cancer, NCI-H23, 48-h exposure): > 0.0001 M | GI50 (Homo sapiens, NCI-H226, 48 h, Non-Small Cell Lung Cancer, NCI-H226, 48-h exposure): 0.385 µM | CC50 (Homo sapiens, NCI-H226, 48 h, read-out: LC50 (M), Non-Small Cell Lung Cancer, NCI-H226, 48-h exposure): > 0.0001 M | GI50 (Homo sapiens, NCI-H322M, 48 h): 0.216 µM | CC50 (Homo sapiens, NCI-H322M, 48 h, read-out: LC50 (M)): > 0.0001 M | GI50 (Homo sapiens, NCI-H460, 48 h, Non-Small Cell Lung Cancer, NCI-H460, 48-h exposure): 0.304 µM | CC50 (Homo sapiens, NCI-H460, 48 h, read-out: LC50 (M), Non-Small Cell Lung Cancer, NCI-H460, 48-h exposure): 3.11e-05 M
